Results reported in ChEMBL document CHEMBL3124930, “Synthesis of novel 5-(3-alkylquinolin-2-yl)-3-aryl isoxazole derivatives and their cytotoxic activity” (Bioorg Med Chem Lett, 2014).

Test system: MDA-MB-231
Assay: Cytotoxicity against human MDA-MB-231 cells assessed as growth inhibition after 24 hrs by MTT assay
Type: functional, cell-based
Details: MDA-MB-231, 24 h

SMILES	IC50 [µM]
CCCCc1cc2ccccc2nc1-c1cc(-c2ccc(C(F)(F)F)cc2)no1	10.4
Cc1ccc(-c2cc(/C=N/c3ccccc3)on2)cc1	29.4
CCCc1cc2ccccc2nc1-c1cc(-c2ccc(C)cc2)no1	> 100
CCCc1cc2ccccc2nc1-c1cc(-c2ccc(F)cc2)no1	48.4
CCc1cc2ccccc2nc1-c1cc(-c2ccc(C(F)(F)F)cc2)no1	> 100
CCCc1cc2ccccc2nc1-c1cc(-c2ccccc2)no1	47.2
Fc1ccc(-c2cc(/C=N/c3ccccc3)on2)cc1	41.2
FC(F)(F)c1ccc(-c2cc(/C=N/c3ccccc3)on2)cc1	37.4
CCCCCc1cc2ccccc2nc1-c1cc(-c2ccccc2)no1	> 100
CCc1cc2ccccc2nc1-c1cc(-c2ccc(C)cc2)no1	> 100
CCc1cc2ccccc2nc1-c1cc(-c2ccc(F)cc2)no1	> 100
CCCCc1cc2ccccc2nc1-c1cc(-c2ccccc2)no1	> 100
CCCc1cc2ccccc2nc1-c1cc(-c2ccc(C(F)(F)F)cc2)no1	36.5
CCCCCc1cc2ccccc2nc1-c1cc(-c2ccc(C(F)(F)F)cc2)no1	22.1
CCCCc1cc2ccccc2nc1-c1cc(-c2ccc(F)cc2)no1	24.2
CCCCc1cc2ccccc2nc1-c1cc(-c2ccc(C)cc2)no1	> 100
C(=N\c1ccccc1)/c1cc(-c2ccccc2)no1	> 100
COc1cccc2c1C(=O)c1c(O)c3c(c(O)c1C2=O)C[C@@](O)(C(=O)CO)C[C@@H]3O[C@H]1C[C@H](N)[C@H](O)[C@H](C)O1 [DOXORUBICIN]	0.8
CCCCCc1cc2ccccc2nc1-c1cc(-c2ccc(C)cc2)no1	> 100
CCc1cc2ccccc2nc1-c1cc(-c2ccccc2)no1	> 100

Test system: A549
Assay: Cytotoxicity against human A549 cells assessed as growth inhibition after 24 hrs by MTT assay
Type: functional, cell-based
Details: A549, 24 h

SMILES	IC50 [µM]
CCCCc1cc2ccccc2nc1-c1cc(-c2ccc(C(F)(F)F)cc2)no1	9.4
Cc1ccc(-c2cc(/C=N/c3ccccc3)on2)cc1	32
CCCc1cc2ccccc2nc1-c1cc(-c2ccc(C)cc2)no1	> 100
CCCc1cc2ccccc2nc1-c1cc(-c2ccc(F)cc2)no1	51.3
CCc1cc2ccccc2nc1-c1cc(-c2ccc(C(F)(F)F)cc2)no1	> 100
CCCc1cc2ccccc2nc1-c1cc(-c2ccccc2)no1	52.5
Fc1ccc(-c2cc(/C=N/c3ccccc3)on2)cc1	34.5
FC(F)(F)c1ccc(-c2cc(/C=N/c3ccccc3)on2)cc1	38.9
CCCCCc1cc2ccccc2nc1-c1cc(-c2ccccc2)no1	92.3
CCc1cc2ccccc2nc1-c1cc(-c2ccc(C)cc2)no1	> 100
CCc1cc2ccccc2nc1-c1cc(-c2ccc(F)cc2)no1	> 100
CCCCc1cc2ccccc2nc1-c1cc(-c2ccccc2)no1	> 100
CCCc1cc2ccccc2nc1-c1cc(-c2ccc(C(F)(F)F)cc2)no1	43.9
CCCCCc1cc2ccccc2nc1-c1cc(-c2ccc(C(F)(F)F)cc2)no1	28.3
CCCCc1cc2ccccc2nc1-c1cc(-c2ccc(F)cc2)no1	27.5
CCCCc1cc2ccccc2nc1-c1cc(-c2ccc(C)cc2)no1	> 100
C(=N\c1ccccc1)/c1cc(-c2ccccc2)no1	48.1
CCCCCc1cc2ccccc2nc1-c1cc(-c2ccc(C)cc2)no1	> 100
CCc1cc2ccccc2nc1-c1cc(-c2ccccc2)no1	> 100

Test system: PC-3
Assay: Cytotoxicity against human PC3 cells assessed as growth inhibition after 24 hrs by MTT assay
Type: functional, cell-based
Details: PC-3, 24 h

SMILES	IC50 [µM]
CCCCc1cc2ccccc2nc1-c1cc(-c2ccc(C(F)(F)F)cc2)no1	10.8
Cc1ccc(-c2cc(/C=N/c3ccccc3)on2)cc1	31.6
CCCc1cc2ccccc2nc1-c1cc(-c2ccc(C)cc2)no1	> 100
CCCc1cc2ccccc2nc1-c1cc(-c2ccc(F)cc2)no1	42.2
CCc1cc2ccccc2nc1-c1cc(-c2ccc(C(F)(F)F)cc2)no1	> 100
CCCc1cc2ccccc2nc1-c1cc(-c2ccccc2)no1	51.3
Fc1ccc(-c2cc(/C=N/c3ccccc3)on2)cc1	36.5
FC(F)(F)c1ccc(-c2cc(/C=N/c3ccccc3)on2)cc1	35.7
CCCCCc1cc2ccccc2nc1-c1cc(-c2ccccc2)no1	> 100
CCc1cc2ccccc2nc1-c1cc(-c2ccc(C)cc2)no1	> 100
CCc1cc2ccccc2nc1-c1cc(-c2ccc(F)cc2)no1	> 100
CCCCc1cc2ccccc2nc1-c1cc(-c2ccccc2)no1	> 100
CCCc1cc2ccccc2nc1-c1cc(-c2ccc(C(F)(F)F)cc2)no1	33.8
CCCCCc1cc2ccccc2nc1-c1cc(-c2ccc(C(F)(F)F)cc2)no1	30.2
CCCCc1cc2ccccc2nc1-c1cc(-c2ccc(F)cc2)no1	26.3
CCCCc1cc2ccccc2nc1-c1cc(-c2ccc(C)cc2)no1	> 100
C(=N\c1ccccc1)/c1cc(-c2ccccc2)no1	> 100
COc1cccc2c1C(=O)c1c(O)c3c(c(O)c1C2=O)C[C@@](O)(C(=O)CO)C[C@@H]3O[C@H]1C[C@H](N)[C@H](O)[C@H](C)O1 [DOXORUBICIN]	0.6
CCCCCc1cc2ccccc2nc1-c1cc(-c2ccc(C)cc2)no1	> 100
CCc1cc2ccccc2nc1-c1cc(-c2ccccc2)no1	> 100

Test system: COLO 205
Assay: Cytotoxicity against human COLO205 cells assessed as growth inhibition after 24 hrs by MTT assay
Type: functional, cell-based
Details: COLO 205, 24 h

SMILES	IC50 [µM]
CCCCc1cc2ccccc2nc1-c1cc(-c2ccc(C(F)(F)F)cc2)no1	11.9
Cc1ccc(-c2cc(/C=N/c3ccccc3)on2)cc1	28.9
CCCc1cc2ccccc2nc1-c1cc(-c2ccc(C)cc2)no1	> 100
CCCc1cc2ccccc2nc1-c1cc(-c2ccc(F)cc2)no1	50.3
CCc1cc2ccccc2nc1-c1cc(-c2ccc(C(F)(F)F)cc2)no1	> 100
CCCc1cc2ccccc2nc1-c1cc(-c2ccccc2)no1	48.9
Fc1ccc(-c2cc(/C=N/c3ccccc3)on2)cc1	33.1
FC(F)(F)c1ccc(-c2cc(/C=N/c3ccccc3)on2)cc1	41.3
CCCCCc1cc2ccccc2nc1-c1cc(-c2ccccc2)no1	> 100
CCc1cc2ccccc2nc1-c1cc(-c2ccc(C)cc2)no1	> 100
CCc1cc2ccccc2nc1-c1cc(-c2ccc(F)cc2)no1	> 100
CCCCc1cc2ccccc2nc1-c1cc(-c2ccccc2)no1	> 100
CCCc1cc2ccccc2nc1-c1cc(-c2ccc(C(F)(F)F)cc2)no1	42.2
CCCCCc1cc2ccccc2nc1-c1cc(-c2ccc(C(F)(F)F)cc2)no1	24.5
CCCCc1cc2ccccc2nc1-c1cc(-c2ccc(F)cc2)no1	25.3
CCCCc1cc2ccccc2nc1-c1cc(-c2ccc(C)cc2)no1	> 100
C(=N\c1ccccc1)/c1cc(-c2ccccc2)no1	89.1
COc1cccc2c1C(=O)c1c(O)c3c(c(O)c1C2=O)C[C@@](O)(C(=O)CO)C[C@@H]3O[C@H]1C[C@H](N)[C@H](O)[C@H](C)O1 [DOXORUBICIN]	0.7
CCCCCc1cc2ccccc2nc1-c1cc(-c2ccc(C)cc2)no1	> 100
CCc1cc2ccccc2nc1-c1cc(-c2ccccc2)no1	> 100
